The numbers were not newly measured in patent publication US20110171138A1, “SUBSTANTIALLY PURE DEFERASIROX AND PROCESSES FOR THE PREPARATION THEREOF” (ACTAVIS GROUP PTC EHF, priority 2008, published 2011), which cites them from elsewhere.

For this series the following is noted: in water and in acid medium; the solubility increasing with pH.

Consider `O=C(O)c1ccc(-n2nc(-c3ccccc3O)nc2-c2ccccc2O)cc1` [Deferasirox, 4-[3,5-Bis(2-hydroxyphenyl)-1H-1,2,4-triazol-1-yl]benzoic acid], for which the solubility entry is “practically insoluble”.
